Assay results: publication PMC11933327, “Asymmetric activation of dimeric ATM/Tel1 kinase” (Cell Discovery, 2025)

Assays:
human ATM = conditions: ref [5] Howes, A. C., Perisic, O. & Williams, R. L. Sci. Adv. 9, eadi8291 (2023); cited from earlier work
Excerpt: Based on a radiolabeled ATP-based kinase assay, which is the “gold standard” for the quantification of protein kinase activity, we managed to achieve a 30-fold increase in ATM/Tel1 activity (Fig. 1a; Supplementary Fig. S3). This level of activati ...

ATM/Tel1 = experiment: Endogenous activation of ATM/Tel1 in cultured yeast cells; format: cell-based, Schizosaccharomyces pombe; conditions: 0.05% MMS added at OD600 ≈ 4, cells collected 60 min later
Method: (§1) Purification of Yeast ATM/Tel1
(§2) S. pombe stain CC5060 (h–leu1-32 ura4- D18 kanMX6:nmt1:TAP-tel1)[1] was grown in YPD medium to the stationary phase. 0.05% MMS(MACKLIN)was added at OD600 ≈ 4 and c ells were collected 60 min later. About 100 g cells were harvested, washed, and resuspended in extraction buffer (50 mM HEPES [pH 7.6], 300 mM ammonium sulfate, 0.5 mM EDTA, 5 mM β-ME, 10% (v/v) glycerol, 0.01% (v/v) NP-40 and protease inhibitors), and a whole-cell extraction was prepared as previously described. This whole -cell extract was selectively precipitated in 30-55% ammonium sulfate and resuspended using binding buffer (50 mM HEPES [pH 7.6], 1 mM EDTA, 10 mM ZnCl2, 5 mM β- ME, and protease inhibitors). […] The ATM/Tel1 elution was flash- frozen in liquid nitrogen, and analyzed by SDS-PAGE and EM examination.
(§3) Expression and Purification of full-length CHK2, MRN (Mre11, Rad50-core, Nbs1) The codon-optimized gene fragments for human full- length CHK2, yeast Mre11, Rad50-core (lacking the coiled-coil motif) were cloned into the pET22b vector with a C-terminal 6× His tag and Nbs1 were cloned into the pET22b vector with a C-terminal 6× His tag and a GST tag, and transformed into E. coli BL21(DE3). […] The eluted CHK2 and MRN proteins were flash-frozen in liquid nitrogen and analyzed by SDS-PAGE and EM. […]

basal ATM/Tel1 = target: T1, basal ATM/Tel1 (Schizosaccharomyces pombe, UniProt O74630); experiment: Surface plasmon resonance, CHK2 immobilized, basal ATM/Tel1; format: binding; conditions: 20 °C, experiment independently repeated three times
T1 construct: we endogenously purified basal; TAP (N, cleaved yes); made in house; host or cells: Schizosaccharomyces pombe strain CC5060 (TAP-tel1 under the nmt1 promoter)
Method: as §1
as §2, with “described.” for “described. This whole -cell extract was selectively precipitated in 30-55% ammonium sulfate and resuspended using binding buffer (50 mM HEPES [pH 7.6], 1 mM EDTA, 10 mM ZnCl2, 5 mM β- ME, and protease inhibitors).”
as §3
(§4) to SDS- PAGE and analyzed by Western blot (WB) using pan- acetylated -Lysine (Rabbit monoclonal, Cat# 9441S, Cell Signaling Technology). and phospho-ATM/ATR substrate (pSQ/pTQ motif, Rabbit monoclonal, Cat# 6966, Cell Signaling Technology) antibodies. […]

active ATM/Tel1 dimer = experiment: Cryo-EM structure of active ATM/Tel1 with substrate peptide; format: binding, Schizosaccharomyces pombe; conditions: cryo-EM Structure 2, 3.6 Å; active ATM/Tel1 : 329 bp DNA : CHK2 peptide 1:20:200 with AMP-PNP, on ice 1 h
Method: The affinity chromatography sample of ATM/Tel1 was diluted to final concentrations of 0.05 mg/ml (50 mM HEPES [pH 7.6], 0.01% (v/v) NP- 40, 1 mM EDTA, 10 mM ZnCl 2, 5 mM β- ME, and protease inhibitors). Negative staining was used to evaluate the protein quality. In brief, 3 µl of freshly purified ATM/Tel1 was applied onto copper grids supported by a thin layer of glow - discharged carbon film (Zhongjingkeyi Technology Co., Ltd). After adsorption for 30 s, uranyl acetate (2% w/v) was used for negative staining at room temperature. The negatively stained grids were examined using FEI Talos L120C operated at 120 KeV. […]
The grids were imaged in a Titan Krios cryo-electron microscope (Thermo Fisher Scientific) operated at 300 keV at a magnification of 81,000 × (corresponding to a calibrated sampling of 1.07 Å per pixel). Movies were recorded by EPU with a Gatan K3 Summit direct electron detector, where each movie was composed of 32 individual frames with an exposure time of 3.8 s and a dose rate of 50 electrons per second per Å2. […]
Beam-induced sample motions were corrected using MotionCorr2[3] software, and contrast transfer function (CTF) parameters were estimated using CTFFIND4[4] software. […] All reported resolutions were calculated from gold standard refinement procedures with the FSC = 0.143 criterion implemented in cryoSPARC[5]. […]

active ATM/Tel1 = target: T2, active ATM/Tel1 (Schizosaccharomyces pombe, UniProt O74630); experiment: Surface plasmon resonance, CHK2 immobilized, active ATM/Tel1; format: binding; conditions: 20 °C, experiment independently repeated three times
T2 construct: TAP (N, cleaved yes); made in house; host or cells: Schizosaccharomyces pombe strain CC5060 (TAP-tel1 under the nmt1 promoter), treated with 0.05% MMS
Method: as §1
as §2, with “described.” for “described. This whole -cell extract was selectively precipitated in 30-55% ammonium sulfate and resuspended using binding buffer (50 mM HEPES [pH 7.6], 1 mM EDTA, 10 mM ZnCl2, 5 mM β- ME, and protease inhibitors).”
as §3, §4

T1 sequence (O74630 whole entry): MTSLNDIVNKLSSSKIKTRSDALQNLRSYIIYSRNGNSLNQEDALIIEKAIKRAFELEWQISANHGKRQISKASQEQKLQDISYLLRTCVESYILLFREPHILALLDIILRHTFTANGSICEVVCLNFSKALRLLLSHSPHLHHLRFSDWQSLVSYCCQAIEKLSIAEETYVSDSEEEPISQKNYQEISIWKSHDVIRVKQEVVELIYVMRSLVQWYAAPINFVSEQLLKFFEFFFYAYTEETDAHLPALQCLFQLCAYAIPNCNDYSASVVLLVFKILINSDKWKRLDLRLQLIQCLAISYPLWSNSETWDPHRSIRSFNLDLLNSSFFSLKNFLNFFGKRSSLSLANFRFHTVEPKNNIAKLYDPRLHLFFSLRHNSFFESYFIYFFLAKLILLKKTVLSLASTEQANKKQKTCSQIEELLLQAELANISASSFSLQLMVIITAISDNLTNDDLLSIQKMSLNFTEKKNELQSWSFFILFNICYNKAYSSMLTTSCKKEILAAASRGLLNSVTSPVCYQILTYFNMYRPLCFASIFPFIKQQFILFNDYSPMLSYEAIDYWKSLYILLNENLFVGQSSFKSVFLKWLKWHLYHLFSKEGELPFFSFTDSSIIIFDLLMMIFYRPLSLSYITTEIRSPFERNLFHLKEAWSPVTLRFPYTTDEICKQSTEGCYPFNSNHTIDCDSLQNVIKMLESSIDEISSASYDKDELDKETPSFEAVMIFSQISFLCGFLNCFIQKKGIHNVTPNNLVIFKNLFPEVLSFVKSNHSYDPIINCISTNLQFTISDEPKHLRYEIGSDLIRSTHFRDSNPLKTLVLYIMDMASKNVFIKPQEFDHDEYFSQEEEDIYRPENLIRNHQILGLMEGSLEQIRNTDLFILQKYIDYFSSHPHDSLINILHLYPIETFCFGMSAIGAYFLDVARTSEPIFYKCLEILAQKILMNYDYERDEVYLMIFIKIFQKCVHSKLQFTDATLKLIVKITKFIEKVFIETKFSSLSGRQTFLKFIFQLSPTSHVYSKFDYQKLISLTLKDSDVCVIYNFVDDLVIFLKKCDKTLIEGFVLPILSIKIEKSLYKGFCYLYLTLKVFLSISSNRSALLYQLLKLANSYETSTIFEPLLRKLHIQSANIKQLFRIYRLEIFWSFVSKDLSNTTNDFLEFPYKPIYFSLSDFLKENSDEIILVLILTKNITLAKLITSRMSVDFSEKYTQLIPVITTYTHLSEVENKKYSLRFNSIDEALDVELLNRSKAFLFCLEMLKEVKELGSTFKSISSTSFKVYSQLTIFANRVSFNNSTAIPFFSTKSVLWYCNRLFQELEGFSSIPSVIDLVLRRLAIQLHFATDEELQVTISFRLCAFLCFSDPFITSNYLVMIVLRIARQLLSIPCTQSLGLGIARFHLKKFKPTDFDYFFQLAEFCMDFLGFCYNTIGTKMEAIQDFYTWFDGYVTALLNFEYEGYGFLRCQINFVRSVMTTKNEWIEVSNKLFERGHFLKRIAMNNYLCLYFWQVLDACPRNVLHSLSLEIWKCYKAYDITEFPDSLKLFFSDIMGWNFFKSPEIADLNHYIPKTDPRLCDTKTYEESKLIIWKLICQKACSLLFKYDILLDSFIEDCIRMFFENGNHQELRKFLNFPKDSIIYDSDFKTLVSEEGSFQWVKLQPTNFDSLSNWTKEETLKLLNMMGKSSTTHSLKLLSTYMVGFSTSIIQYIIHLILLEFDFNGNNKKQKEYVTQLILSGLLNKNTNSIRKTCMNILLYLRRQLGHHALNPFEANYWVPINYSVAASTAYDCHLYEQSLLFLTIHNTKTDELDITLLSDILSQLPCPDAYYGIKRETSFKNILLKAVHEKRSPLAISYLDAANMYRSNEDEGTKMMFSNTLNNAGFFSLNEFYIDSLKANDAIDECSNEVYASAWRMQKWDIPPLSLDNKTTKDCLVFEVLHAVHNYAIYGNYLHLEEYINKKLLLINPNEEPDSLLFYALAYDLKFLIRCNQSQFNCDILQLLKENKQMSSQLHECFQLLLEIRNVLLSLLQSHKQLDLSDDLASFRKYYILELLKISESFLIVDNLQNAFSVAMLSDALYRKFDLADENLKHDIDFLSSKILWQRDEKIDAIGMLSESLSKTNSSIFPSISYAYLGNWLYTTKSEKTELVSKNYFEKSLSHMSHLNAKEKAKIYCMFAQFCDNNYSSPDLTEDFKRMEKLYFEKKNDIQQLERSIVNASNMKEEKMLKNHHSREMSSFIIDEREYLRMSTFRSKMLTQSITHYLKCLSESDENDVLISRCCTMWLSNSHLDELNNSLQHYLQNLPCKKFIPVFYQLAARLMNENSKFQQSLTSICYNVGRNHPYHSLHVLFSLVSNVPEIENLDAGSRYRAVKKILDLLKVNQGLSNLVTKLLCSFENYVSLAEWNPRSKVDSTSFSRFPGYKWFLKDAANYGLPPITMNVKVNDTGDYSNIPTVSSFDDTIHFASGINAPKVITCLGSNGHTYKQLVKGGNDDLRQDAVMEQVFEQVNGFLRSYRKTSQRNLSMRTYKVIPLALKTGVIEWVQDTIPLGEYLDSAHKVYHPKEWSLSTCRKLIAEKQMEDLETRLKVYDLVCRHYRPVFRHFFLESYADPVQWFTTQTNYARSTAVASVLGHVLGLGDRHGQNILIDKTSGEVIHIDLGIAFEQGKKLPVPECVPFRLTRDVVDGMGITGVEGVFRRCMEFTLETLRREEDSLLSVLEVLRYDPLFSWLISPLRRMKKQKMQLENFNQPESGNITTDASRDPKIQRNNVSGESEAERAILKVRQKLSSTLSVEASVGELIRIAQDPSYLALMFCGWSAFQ
T2 sequence (O74630 whole entry): as above

For `OO` [H2O2], the “level of activation of human ATM in vitro compared with the 30-fold activation of ATM/Tel1” value (human ATM) is listed as “comparable”.

In the case of `COS(C)(=O)=O` [methylmethane sulfonate], the “activation of cellular ATM/Tel1 (in words)” value (ATM/Tel1) is reported as “endogenously activated the cellular ATM/Tel1”.

With “LETVSTQELYSI [CHK2 peptide, 12-residue human CHK2 substrate peptide 63-74, custom-synthesized by Sangon, with an N-terminal NH2 and C-terminal COOH]” the “reduction of affinity for basal ATM/Tel1 compared to the active state” value (basal ATM/Tel1; SPR (Supplementary Fig. S7)) was “over 120 fold”, the “binding affinity for basal ATM/Tel1 (in words)” value (basal ATM/Tel1; SPR (Supplementary Fig. S7b)) was “significantly lower affinity” and the “monomers of the active dimer that bind the substrate peptide” value (active ATM/Tel1 dimer) was “only Mono1, but not Mono2, can bind to the CHK2 peptide”. The “affinity for active ATM/Tel1 relative to full-length CHK2” value (active ATM/Tel1; SPR (Supplementary Fig. S7)) was “comparable to that of the full-length CHK2” and the “binding affinity for active ATM/Tel1 (in words)” value (active ATM/Tel1; SPR (Supplementary Fig. S7a)) was “increased affinity in the active state”.
